According to ChEMBL document CHEMBL1128029, “Synthesis and biological properties of a new series of anti-MRSA -lactams; 2-(thiazol-2-ylthio)carbapenems” (Bioorg Med Chem Lett, 1994):
Values after ≈ are worked out from the molar mass of the structure shown.

How the values were obtained:
[1] = target: Albumin (Homo sapiens, UniProt P02768); test: Binding affinity towards Human Serum albumin.
[2] = tested on: Staphylococcus epidermidis; test: In vitro minimum inhibitory concentration against Staphylococcus epidermidis IAM1296; type: functional
[3] = tested on: Staphylococcus aureus; test: In vitro minimum inhibitory concentration against Staphylococcus aureus 209p; type: functional
[4] = tested on: Staphylococcus aureus; test: In vitro minimum inhibitory concentration against Staphylococcus aureus MS9408; type: functional
[5] = target: T1, Dipeptidase 1 (Sus scrofa) (UniProt P22412); test: Time of enzyme-catalyzed hydrolysis from 500 uM to 400 uM in the presence of purified renal DHP-1 of swine
T1 sequence (whole entry): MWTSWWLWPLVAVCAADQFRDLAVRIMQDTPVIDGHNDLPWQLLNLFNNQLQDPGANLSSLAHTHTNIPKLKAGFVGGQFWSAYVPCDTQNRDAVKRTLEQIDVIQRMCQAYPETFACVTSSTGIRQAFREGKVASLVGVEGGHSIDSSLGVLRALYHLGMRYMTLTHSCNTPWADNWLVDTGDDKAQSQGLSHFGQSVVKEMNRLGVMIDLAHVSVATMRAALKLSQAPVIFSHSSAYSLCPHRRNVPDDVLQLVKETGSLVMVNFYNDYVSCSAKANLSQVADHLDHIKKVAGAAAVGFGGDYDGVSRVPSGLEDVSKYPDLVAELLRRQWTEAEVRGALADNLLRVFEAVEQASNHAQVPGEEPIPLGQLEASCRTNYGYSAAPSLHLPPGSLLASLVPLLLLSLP

[6] = tested on: Staphylococcus aureus; test: In vitro minimum inhibitory concentration against Staphylococcus aureus SP-7928; type: functional
[7] = tested on: Klebsiella pneumoniae; test: In vitro minimum inhibitory concentration against Klebsiella pneumoniae ATCC 10031; type: functional
[8] = tested on: Escherichia coli; test: In vitro minimum inhibitory concentration against Escherichia coli NIHJ JC-2; type: functional

Sequence of Albumin (P02768 whole entry): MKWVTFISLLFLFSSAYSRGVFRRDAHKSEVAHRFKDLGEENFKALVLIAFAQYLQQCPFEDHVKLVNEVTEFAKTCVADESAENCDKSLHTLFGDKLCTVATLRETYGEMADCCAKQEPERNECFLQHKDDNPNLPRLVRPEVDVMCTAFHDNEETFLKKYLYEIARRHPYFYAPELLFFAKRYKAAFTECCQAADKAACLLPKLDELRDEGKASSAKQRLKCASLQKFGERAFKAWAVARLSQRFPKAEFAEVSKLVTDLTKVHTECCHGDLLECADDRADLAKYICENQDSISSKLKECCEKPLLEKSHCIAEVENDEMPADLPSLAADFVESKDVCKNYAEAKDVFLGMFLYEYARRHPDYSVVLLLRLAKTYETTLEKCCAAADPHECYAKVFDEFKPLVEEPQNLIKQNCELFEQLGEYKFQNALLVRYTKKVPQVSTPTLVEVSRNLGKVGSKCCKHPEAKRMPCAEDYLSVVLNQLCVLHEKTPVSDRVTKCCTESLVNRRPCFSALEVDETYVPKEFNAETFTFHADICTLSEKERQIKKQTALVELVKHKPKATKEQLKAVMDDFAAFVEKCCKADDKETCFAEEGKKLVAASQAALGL

Binding [1] | MIC [2] | MIC [3] | MIC [4] | TIME [5] | MIC [6] | MIC [7] | MIC [8] | SMILES
98% | 0.025 µg/mL (≈ 0.0599 µM) | < 0.013 µg/mL | 0.2 µg/mL (≈ 0.479 µM) | 0.3 h | 1.56 µg/mL (≈ 3.74 µM) | 0.05 µg/mL (≈ 0.12 µM) | 6.25 µg/mL (≈ 15 µM) | C[C@@H](O)[C@H]1C(=O)N2C(C(=O)O)=C(Sc3nc(-c4ccc(N)cc4)cs3)[C@H](C)[C@H]12
99% | 0.025 µg/mL (≈ 0.0551 µM) | < 0.006 µg/mL | 0.1 µg/mL (≈ 0.22 µM) | 0.162 h | 0.78 µg/mL (≈ 1.72 µM) | 0.2 µg/mL (≈ 0.441 µM) | 12.5 µg/mL (≈ 27.6 µM) | C[C@@H](O)[C@H]1C(=O)N2C(C(=O)O)=C(Sc3nc(-c4ccc5ccncc5c4)cs3)[C@H](C)[C@H]12
> 94% | 0.025 µg/mL (≈ 0.0621 µM) | < 0.013 µg/mL | 0.1 µg/mL (≈ 0.248 µM) | 0.163 h | 0.78 µg/mL (≈ 1.94 µM) | 0.1 µg/mL (≈ 0.248 µM) | 6.25 µg/mL (≈ 15.5 µM) | C[C@@H](O)[C@H]1C(=O)N2C(C(=O)O)=C(Sc3nc(-c4ccccc4)cs3)[C@H](C)[C@H]12
> 75% | 0.1 µg/mL (≈ 0.282 µM) | 0.025 µg/mL (≈ 0.0705 µM) | 0.78 µg/mL (≈ 2.2 µM) | 0.383 h | 6.25 µg/mL (≈ 17.6 µM) | 0.2 µg/mL (≈ 0.564 µM) | 3.13 µg/mL (≈ 8.83 µM) | Cc1nc(SC2=C(C(=O)O)N3C(=O)[C@H]([C@@H](C)O)[C@H]3[C@H]2C)sc1C
69% | 0.1 µg/mL (≈ 0.306 µM) | 0.025 µg/mL (≈ 0.0766 µM) | 0.78 µg/mL (≈ 2.39 µM) | 0.25 h | 12.5 µg/mL (≈ 38.3 µM) | 0.05 µg/mL (≈ 0.153 µM) | 0.78 µg/mL (≈ 2.39 µM) | C[C@@H](O)[C@H]1C(=O)N2C(C(=O)O)=C(Sc3nccs3)[C@H](C)[C@H]12
7.8% | 0.025 µg/mL (≈ 0.0599 µM) | < 0.013 µg/mL | 0.2 µg/mL (≈ 0.479 µM) | 0.467 h | 1.56 µg/mL (≈ 3.74 µM) | 0.05 µg/mL (≈ 0.12 µM) | 0.39 µg/mL (≈ 0.934 µM) | C[C@@H](O)[C@H]1C(=O)N2C(C(=O)[O-])=C(Sc3nc(-c4ccc[n+](C)c4)cs3)[C@H](C)[C@H]12
> 94% | 0.39 µg/mL (≈ 0.969 µM) | < 0.006 µg/mL | 0.39 µg/mL (≈ 0.969 µM) | 0.25 h | 12.5 µg/mL (≈ 31.1 µM) | 0.39 µg/mL (≈ 0.969 µM) | 25 µg/mL (≈ 62.1 µM) | C[C@@H](O)[C@H]1C(=O)N2C(C(=O)O)=C(Sc3ncc(-c4ccccc4)s3)[C@H](C)[C@H]12
> 94% | 0.025 µg/mL (≈ 0.06 µM) | < 0.006 µg/mL | 0.2 µg/mL (≈ 0.48 µM) | 0.153 h | 3.13 µg/mL (≈ 7.51 µM) | 0.39 µg/mL (≈ 0.936 µM) | 12.5 µg/mL (≈ 30 µM) | Cc1ccc(-c2csc(SC3=C(C(=O)O)N4C(=O)[C@H]([C@@H](C)O)[C@H]4[C@H]3C)n2)cc1
24% | 0.025 µg/mL (≈ 0.0543 µM) | < 0.006 µg/mL | 0.2 µg/mL (≈ 0.434 µM) | 0.283 h | 1.56 µg/mL (≈ 3.39 µM) | 0.05 µg/mL (≈ 0.109 µM) | 0.39 µg/mL (≈ 0.847 µM) | C[C@@H](O)[C@H]1C(=O)N2C(C(=O)[O-])=C(Sc3nc(-c4ccc[n+](CC(N)=O)c4)cs3)[C@H](C)[C@H]12
12% | 0.025 µg/mL (≈ 0.0599 µM) | < 0.006 µg/mL | 0.1 µg/mL (≈ 0.24 µM) | 0.383 h | 1.56 µg/mL (≈ 3.74 µM) | 0.025 µg/mL (≈ 0.0599 µM) | 0.39 µg/mL (≈ 0.934 µM) | C[C@@H](O)[C@H]1C(=O)N2C(C(=O)[O-])=C(Sc3nc(-c4cc[n+](C)cc4)cs3)[C@H](C)[C@H]12
97% | 0.05 µg/mL (≈ 0.124 µM) | < 0.013 µg/mL | 0.2 µg/mL (≈ 0.496 µM) | 0.267 h | 3.13 µg/mL (≈ 7.76 µM) | 0.2 µg/mL (≈ 0.496 µM) | 6.25 µg/mL (≈ 15.5 µM) | C[C@@H](O)[C@H]1C(=O)N2C(C(=O)O)=C(Sc3nc(-c4ccncc4)cs3)[C@H](C)[C@H]12
> 94% | 0.025 µg/mL (≈ 0.0572 µM) | < 0.013 µg/mL | 0.2 µg/mL (≈ 0.458 µM) | 0.165 h | 1.56 µg/mL (≈ 3.57 µM) | 0.2 µg/mL (≈ 0.458 µM) | 12.5 µg/mL (≈ 28.6 µM) | C[C@@H](O)[C@H]1C(=O)N2C(C(=O)O)=C(Sc3nc(-c4ccc(Cl)cc4)cs3)[C@H](C)[C@H]12
97% | 0.025 µg/mL (≈ 0.062 µM) | < 0.013 µg/mL | 0.2 µg/mL (≈ 0.496 µM) | 0.0533 h | 1.56 µg/mL (≈ 3.87 µM) | 0.05 µg/mL (≈ 0.124 µM) | 6.25 µg/mL (≈ 15.5 µM) | C[C@@H](O)[C@H]1C(=O)N2C(C(=O)O)=C(Sc3nc(-c4cccnc4)cs3)[C@H](C)[C@H]12
< 10% |  |  |  |  |  |  |  | C[C@@H](O)[C@H]1C(=O)N2C(C(=O)O)=C(SCCN=CN)C[C@H]12 [IMIPENEM ANHYDROUS]
99% | 0.025 µg/mL (≈ 0.0561 µM) | < 0.006 µg/mL | 0.2 µg/mL (≈ 0.449 µM) | 0.2 h | 1.56 µg/mL (≈ 3.5 µM) | 0.1 µg/mL (≈ 0.224 µM) | 6.25 µg/mL (≈ 14 µM) | C[C@@H](O)[C@H]1C(=O)N2C(C(=O)O)=C(Sc3nc(-c4ccc(C(N)=O)cc4)cs3)[C@H](C)[C@H]12
87% | 0.025 µg/mL (≈ 0.0579 µM) | < 0.006 µg/mL | 0.2 µg/mL (≈ 0.463 µM) |  | 1.56 µg/mL (≈ 3.61 µM) | 0.2 µg/mL (≈ 0.463 µM) | 1.56 µg/mL (≈ 3.61 µM) | C[C@@H](O)[C@H]1C(=O)N2C(C(=O)O)=C(Sc3nc(-c4ccc(CN)cc4)cs3)[C@H](C)[C@H]12
> 94% | 0.2 µg/mL (≈ 0.531 µM) | 0.025 µg/mL (≈ 0.0664 µM) | 0.78 µg/mL (≈ 2.07 µM) |  | 3.13 µg/mL (≈ 8.31 µM) | 0.78 µg/mL (≈ 2.07 µM) | 25 µg/mL (≈ 66.4 µM) | C[C@@H](O)[C@H]1C(=O)N2C(C(=O)O)=C(Sc3nc4ccccc4s3)[C@H](C)[C@H]12
59% | 0.013 µg/mL (≈ 0.0278 µM) | < 0.006 µg/mL | 0.05 µg/mL (≈ 0.107 µM) | 0.2 h | 0.78 µg/mL (≈ 1.67 µM) | 0.05 µg/mL (≈ 0.107 µM) | 3.13 µg/mL (≈ 6.69 µM) | C[C@@H](O)[C@H]1C(=O)N2C(C(=O)[O-])=C(Sc3nc(-c4ccc5cc[n+](C)cc5c4)cs3)[C@H](C)[C@H]12
96% | 0.05 µg/mL (≈ 0.136 µM) | 0.025 µg/mL (≈ 0.0678 µM) | 0.39 µg/mL (≈ 1.06 µM) | 0.2 h | 3.13 µg/mL (≈ 8.49 µM) | 0.2 µg/mL (≈ 0.543 µM) | 12.5 µg/mL (≈ 33.9 µM) | CCCc1csc(SC2=C(C(=O)O)N3C(=O)[C@H]([C@@H](C)O)[C@H]3[C@H]2C)n1
93% | 0.05 µg/mL (≈ 0.147 µM) | 0.025 µg/mL (≈ 0.0734 µM) | 0.39 µg/mL (≈ 1.15 µM) | 0.217 h | 3.13 µg/mL (≈ 9.19 µM) | 0.05 µg/mL (≈ 0.147 µM) | 3.13 µg/mL (≈ 9.19 µM) | Cc1csc(SC2=C(C(=O)O)N3C(=O)[C@H]([C@@H](C)O)[C@H]3[C@H]2C)n1
15% | 0.05 µg/mL (≈ 0.109 µM) | < 0.006 µg/mL | 0.2 µg/mL (≈ 0.434 µM) | 0.35 h | 1.56 µg/mL (≈ 3.39 µM) | 0.025 µg/mL (≈ 0.0543 µM) | 0.2 µg/mL (≈ 0.434 µM) | C[C@@H](O)[C@H]1C(=O)N2C(C(=O)[O-])=C(Sc3nc(-c4cc[n+](CC(N)=O)cc4)cs3)[C@H](C)[C@H]12

SMILES | Binding [1] | MIC [2] | MIC [3] | MIC [4] | TIME [5] | MIC [6] | MIC [7] | MIC [8]
C[C@@H](O)[C@H]1C(=O)N2C(C(=O)O)=C(SCCNC=N)C[C@H]12 [IMIPENEM ANHYDROUS] |  | 0.2 µg/mL (≈ 0.668 µM) | 0.013 µg/mL (≈ 0.0434 µM) | 0.78 µg/mL (≈ 2.61 µM) | 0.2 h | 50 µg/mL (≈ 167 µM) | 0.1 µg/mL (≈ 0.334 µM) | 0.1 µg/mL (≈ 0.334 µM)
